Assay results taken from patent US9182397B2, “Immunoassay for detecting antibiotics” (DSM IP ASSETS B.V., priority 2011, dated 2015).

System: Penicillin binding protein purified from Bacillus stearothermophilus
Assay: Sensitivity of the test device for different antibiotics (Example 23)
Set-up: key: 0: no intensity; 1: low intensity; 2: medium intensity; 3: high intensity
Description: A nitrocellulose HF90 membrane (Millipore; length 25 mm) was used as a detection region. The membrane was glued to a polystyrene laminated card (thickness 0.254 mm) 8 mm from the proximal end of the card. Next, the detection zone and control zone were applied onto the nitrocellulose membrane. The detection zone was applied by dispensing 1 mg/ml of a 7ACA-spacer-BSA conjugate in 20 mM KPO4-buffer (pH 7.5) with a Biodot Dispense workstation XYZ 3050 with frontline at 0.2 μl/cm. The control zone was applied by dispensing 0.15 mg/ml of an anti-IgY antibody in 20 mM KPO4-buffer (pH 7.5) comprising 0.675 mg/ml BSA, 5% w/v saccharose and 20 mM NaCl with a Biodot Dispense workstation XYZ 3050 with frontline at 0.8 μl/cm. After drying of the zones, the nitrocellulose membrane was blocked by spraying a solution comprising 10 mM Tris buffer (pH 8) comprising 2% w/v BSA and 0.05% w/v Tween-20 using a Biodot Dispense workstation XYZ 3050 with airjet 3×. The solution was sprayed onto the membrane at a distance of 2 mm below the detection zone. Thereafter, the sample receiving region (VF2 membrane from Millipore; length 1 cm) was glued at the proximal end of the card overlapping 2 mm with the nitrocellulose membrane. The absorbing region (10038 membrane from Millipore; length 20 mm) was glued at the distal end of the card with an overlap of 2 mm on the nitrocellulose membrane. The obtained cards were dried at 37° C. in a dry atmosphere (0% relative humidity). The card was cut in strips of 5.2 mm width and kept at a dry atmosphere (0% relative humidity).
Streptavidin-coated gold particles were synthesized by reacting colloidal gold (diameter 40 nm; 1 OD/ml) with 10 μg/ml streptavidin. Next, the obtained solution was concentrated by tangential flow filtration, washed and stored in a Tris buffer (pH 8) including NaCN. Penicillin binding protein purified from Bacillus stearothermophilus was biotinylated (1:4) with D-biotinyl-epsilon-aminocaproic acid-N-hydroxysuccinimide ester. Next, the penicillin binding protein-gold conjugate was synthesized by reacting 1.5 μg biotinylated penicillin binding protein with 1 OD streptavidin-coated gold particles for 1 hour, followed by centrifugation at 10,000×g for 5 minutes and resuspension of the obtained pellet in 45 mM bicarbonate buffer comprising 0.1% w/v Triton X-100 (pH 9.6).
Thereafter, 140-200 mOD of the penicillin binding protein-gold conjugate and 5-20 mOD of the IgY-gold conjugate was solubilized in 100 μl buffer (80 mM Tris buffer comprising 0.01% w/v Triton-X-100, 0.4% w/v BSA, 5% v/v glycerin and 2% w/v saccharose (pH 8.5)) and 0.75 μl of the solution was dispensed per tube and dried for 12 hours at 40° C. The obtained tubes were sealed.
150 μl of spiked milk was added per tube containing the dried conjugates. The concentration of penicillin G in the added milk varied from 0 to 4 ng/g (tube 1: 0 ng/g; […]; tube 2: 2 ng/g; tube 3: 3 ng/g; and tube 4: 4 ng/g). The obtained liquid composition was incubated for 2 minutes at 64° C. in an incubator. A test device was put into the tube and incubated for 3 minutes at 64° C. in the incubator. The result was read by eye.
The test was done essentially as described in Example 3, with the proviso that different antibiotics at different concentrations were tested.

CC1(C)S[C@@H]2[C@H](NC(=O)[C@H](N)c3ccc(O)cc3)C(=O)N2[C@H]1C(=O)O [Amoxicillin]
Intensity of detection zone (Amoxicillin 3.3 ng/g in milk): 2 | Intensity of detection zone (Amoxicillin 4.3 ng/g in milk): 1 | Intensity of detection zone (Amoxicillin 5.3 ng/g in milk): 1 | Intensity of detection zone (Amoxicillin 6.3 ng/g in milk): 0 | Intensity of detection zone (Amoxicillin 7.3 ng/g in milk): 0

CC1(C)S[C@@H]2[C@H](NC(=O)[C@H](N)c3ccccc3)C(=O)N2[C@H]1C(=O)O [Ampicillin]
Intensity of detection zone (Ampicillin 5.3 ng/g in milk): 2 | Intensity of detection zone (Ampicillin 6.9 ng/g in milk): 1 | Intensity of detection zone (Ampicillin 8.5 ng/g in milk): 0 | Intensity of detection zone (Ampicillin 10.1 ng/g in milk): 0 | Intensity of detection zone (Ampicillin 11.7 ng/g in milk): 0

CC1=C(C(=O)O)N2C(=O)[C@@H](NC(=O)[C@H](N)c3ccccc3)[C@H]2SC1 [Cefalexin]
Intensity of detection zone (Cefalexin 34.0 ng/g in milk): 2 | Intensity of detection zone (Cefalexin 43.0 ng/g in milk): 1 | Intensity of detection zone (Cefalexin 52.0 ng/g in milk): 0 | Intensity of detection zone (Cefalexin 61.0 ng/g in milk): 0 | Intensity of detection zone (Cefalexin 70.0 ng/g in milk): 0

NC(=O)c1cc[n+](CC2=C(C(=O)[O-])N3C(=O)[C@@H](NC(=O)Cc4cccs4)[C@H]3SC2)cc1 [Cefalonium]
Intensity of detection zone (Cefalonium 3.2 ng/g in milk): 2 | Intensity of detection zone (Cefalonium 4.0 ng/g in milk): 1 | Intensity of detection zone (Cefalonium 4.8 ng/g in milk): 0 | Intensity of detection zone (Cefalonium 5.6 ng/g in milk): 0 | Intensity of detection zone (Cefalonium 6.4 ng/g in milk): 0

Cc1nnc(SCC2=C(C(=O)O)N3C(=O)[C@@H](NC(=O)Cn4cnnn4)[C@H]3SC2)s1 [Cefazolin]
Intensity of detection zone (Cefazolin 10.0 ng/g in milk): 2 | Intensity of detection zone (Cefazolin 12.5 ng/g in milk): 1 | Intensity of detection zone (Cefazolin 15.0 ng/g in milk): 0 | Intensity of detection zone (Cefazolin 17.5 ng/g in milk): 0 | Intensity of detection zone (Cefazolin 20.0 ng/g in milk): 0

CCN1CCN(C(=O)N[C@@H](C(=O)N[C@@H]2C(=O)N3C(C(=O)O)=C(CSc4nnnn4C)CS[C@H]23)c2ccc(O)cc2)C(=O)C1=O [Cefoperazone]
Intensity of detection zone (Cefoperazone 4.0 ng/g in milk): 2 | Intensity of detection zone (Cefoperazone 4.9 ng/g in milk): 2 | Intensity of detection zone (Cefoperazone 5.8 ng/g in milk): 1 | Intensity of detection zone (Cefoperazone 6.7 ng/g in milk): 1 | Intensity of detection zone (Cefoperazone 7.6 ng/g in milk): 0

CO/N=C(\C(=O)N[C@@H]1C(=O)N2C(C(=O)[O-])=C(C[n+]3cccc4c3CCCC4)CS[C@H]12)c1csc(N)n1 [Cefquinome]
Intensity of detection zone (Cefquinome 12.5 ng/g in milk): 2 | Intensity of detection zone (Cefquinome 15.8 ng/g in milk): 1 | Intensity of detection zone (Cefquinome 19.1 ng/g in milk): 0 | Intensity of detection zone (Cefquinome 22.4 ng/g in milk): 0 | Intensity of detection zone (Cefquinome 25.7 ng/g in milk): 0

CO/N=C(\C(=O)N[C@@H]1C(=O)N2C(C(=O)O)=C(CSC(=O)c3ccco3)CS[C@H]12)c1csc(N)n1 [Ceftiofur]
Intensity of detection zone (Ceftiofur 4.0 ng/g in milk): 2 | Intensity of detection zone (Ceftiofur 5.1 ng/g in milk): 1 | Intensity of detection zone (Ceftiofur 6.2 ng/g in milk): 0 | Intensity of detection zone (Ceftiofur 7.3 ng/g in milk): 0 | Intensity of detection zone (Ceftiofur 8.4 ng/g in milk): 0

Cc1onc(-c2ccccc2Cl)c1C(=O)N[C@@H]1C(=O)N2[C@@H]1SC(C)(C)[C@@H]2C(=O)O [Cloxacillin]
Intensity of detection zone (Cloxacillin 32.5 ng/g in milk): 1 | Intensity of detection zone (Cloxacillin 43.2 ng/g in milk): 0 | Intensity of detection zone (Cloxacillin 53.9 ng/g in milk): 0 | Intensity of detection zone (Cloxacillin 64.6 ng/g in milk): 0 | Intensity of detection zone (Cloxacillin 75.3 ng/g in milk): 0

Cc1onc(-c2c(Cl)cccc2Cl)c1C(=O)N[C@@H]1C(=O)N2[C@@H]1SC(C)(C)[C@@H]2C(=O)O [Dicloxacillin]
Intensity of detection zone (Dicloxacillin 15.0 ng/g in milk): 3 | Intensity of detection zone (Dicloxacillin 20.0 ng/g in milk): 2 | Intensity of detection zone (Dicloxacillin 25.0 ng/g in milk): 2 | Intensity of detection zone (Dicloxacillin 30.0 ng/g in milk): 1 | Intensity of detection zone (Dicloxacillin 35.0 ng/g in milk): 0

CCOc1ccc2ccccc2c1C(=O)N[C@@H]1C(=O)N2[C@@H]1SC(C)(C)[C@@H]2C(=O)O [Nafcillin]
Intensity of detection zone (Nafcillin 40.0 ng/g in milk): 3 | Intensity of detection zone (Nafcillin 50.5 ng/g in milk): 2 | Intensity of detection zone (Nafcillin 61.0 ng/g in milk): 1 | Intensity of detection zone (Nafcillin 71.5 ng/g in milk): 0 | Intensity of detection zone (Nafcillin 82.0 ng/g in milk): 0

Cc1onc(-c2ccccc2)c1C(=O)N[C@@H]1C(=O)N2[C@@H]1SC(C)(C)[C@@H]2C(=O)O [Oxacillin]
Intensity of detection zone (Oxacillin 27.0 ng/g in milk): 2 | Intensity of detection zone (Oxacillin 34.8 ng/g in milk): 2 | Intensity of detection zone (Oxacillin 42.6 ng/g in milk): 1 | Intensity of detection zone (Oxacillin 50.4 ng/g in milk): 0 | Intensity of detection zone (Oxacillin 58.2 ng/g in milk): 0
